Source: patent US20260102501A1, “ANTI-CANCER NUCLEAR HORMONE RECEPTOR-TARGETING COMPOUNDS” (Nuvation Bio Inc., priority 2022, published 2026)

How the values were obtained:
LNCap cells = test: Cell viability assay (CellTiterGlo); assay type: cell-based; settings: Homo sapiens, 144 h, read-out: LNCap (IC50, nM)
T47D cells = test: Cell viability assay (CellTiterGlo); assay type: cell-based; settings: Homo sapiens, 144 h, read-out: T47D (IC50, nM)
[1] = biological target: T1, Progesterone Receptor (PR)-LBD and coactivator peptide (Homo sapiens, UniProt P06401); test: PR coactivator antagonist assay; settings: 2.5 nM PR-LBD, 10 nM progesterone-induced fluorescence response
T1 sequence (P06401 679-913 limits assumed): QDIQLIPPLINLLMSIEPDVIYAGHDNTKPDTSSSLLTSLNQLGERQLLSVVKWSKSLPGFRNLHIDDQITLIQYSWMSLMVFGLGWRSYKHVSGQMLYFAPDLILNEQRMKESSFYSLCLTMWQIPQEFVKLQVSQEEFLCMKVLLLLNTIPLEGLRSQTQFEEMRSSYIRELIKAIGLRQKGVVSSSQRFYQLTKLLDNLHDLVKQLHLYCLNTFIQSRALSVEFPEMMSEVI

IEC6 cells = test: Cell viability assay (CellTiterGlo); settings: Rattus norvegicus, IEC-6, 144 h, read-out: IEC-6 (IC50, nM)
Procedure: Cell viability assay: LNCap, 22Rv1, MCF7, MDAMB361, T47D, and IEC6 cells were seeded at a density of 500-2000 cells/well in 96 well plates, and a ‘T0’ (timepoint 0) was included along with the assay plate. The plates were then incubated at 37° C., 5% CO2 in a cell culture incubator overnight. On the next day, the ‘T0’ plate was assayed using CellTiterGlo (Promega, Inc) according to the manufacturer's instructions. The appropriate compounds were diluted in DMSO and added to the assay plate (final DMSO concentration of 0.1-0.2%) on the next day. The assay plates were incubated for 6 days at 37° C., 5% CO2. After the incubation period, the plates were assayed using CellTiterGlo (Promega, Inc) according to the manufacturer's instructions and luminescence was read on the En Vision plate reader. […] GraphPadPrism was used to analyze the data and determine GI50/IC50 values.

[2] = biological target: T2, AR (cytosol from LnCaP cells) (Homo sapiens, UniProt P10275, T878A); test: AR binding assay (3H-R1881 displacement)
T2 sequence (P10275 1-920 T878A): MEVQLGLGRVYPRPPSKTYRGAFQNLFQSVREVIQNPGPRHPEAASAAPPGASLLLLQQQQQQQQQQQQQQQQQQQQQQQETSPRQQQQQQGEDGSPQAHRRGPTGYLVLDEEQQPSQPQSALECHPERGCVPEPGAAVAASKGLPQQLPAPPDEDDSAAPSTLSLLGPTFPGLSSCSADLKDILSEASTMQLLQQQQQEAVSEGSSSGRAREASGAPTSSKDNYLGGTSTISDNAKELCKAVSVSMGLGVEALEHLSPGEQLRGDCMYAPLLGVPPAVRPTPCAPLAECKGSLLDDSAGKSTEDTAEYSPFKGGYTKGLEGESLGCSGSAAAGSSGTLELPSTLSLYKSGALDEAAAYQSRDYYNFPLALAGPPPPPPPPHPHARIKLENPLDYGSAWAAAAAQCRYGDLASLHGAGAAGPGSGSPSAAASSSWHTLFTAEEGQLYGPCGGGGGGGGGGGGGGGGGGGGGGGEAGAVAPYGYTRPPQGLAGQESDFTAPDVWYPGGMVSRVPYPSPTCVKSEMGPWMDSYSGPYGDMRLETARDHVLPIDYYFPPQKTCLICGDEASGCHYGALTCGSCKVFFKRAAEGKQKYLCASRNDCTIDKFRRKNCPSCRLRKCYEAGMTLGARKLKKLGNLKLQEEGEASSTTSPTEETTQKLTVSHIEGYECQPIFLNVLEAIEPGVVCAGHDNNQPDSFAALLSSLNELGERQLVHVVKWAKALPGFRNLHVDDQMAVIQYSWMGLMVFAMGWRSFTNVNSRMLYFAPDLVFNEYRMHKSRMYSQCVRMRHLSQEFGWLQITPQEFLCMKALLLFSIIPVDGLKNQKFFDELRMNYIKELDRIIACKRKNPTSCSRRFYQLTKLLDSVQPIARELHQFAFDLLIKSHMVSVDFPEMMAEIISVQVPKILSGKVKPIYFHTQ
Procedure: The plate was then centrifuged at 3000 rpm for 30 minutes at 4° C.

[3] = biological target: T3, ligand binding domain of the glucocorticoid receptor (HEK293 cells stably expressing) (Homo sapiens, UniProt P04150); test: GR antagonism assay (luciferase reporter)
T3 sequence (P04150 524-758 limits assumed): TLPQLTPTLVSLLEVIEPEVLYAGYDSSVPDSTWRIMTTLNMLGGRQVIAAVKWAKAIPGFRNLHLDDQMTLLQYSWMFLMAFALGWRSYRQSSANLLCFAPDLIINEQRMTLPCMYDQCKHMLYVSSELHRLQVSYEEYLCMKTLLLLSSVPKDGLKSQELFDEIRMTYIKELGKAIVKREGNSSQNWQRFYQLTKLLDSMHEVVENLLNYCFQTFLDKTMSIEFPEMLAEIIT

[4] = biological target: T4, GR (cytosol from IM-9 cells) (Homo sapiens, UniProt P04150); test: GR binding assay (3H-Dexamethasone displacement)
T4 sequence (P04150 1-777): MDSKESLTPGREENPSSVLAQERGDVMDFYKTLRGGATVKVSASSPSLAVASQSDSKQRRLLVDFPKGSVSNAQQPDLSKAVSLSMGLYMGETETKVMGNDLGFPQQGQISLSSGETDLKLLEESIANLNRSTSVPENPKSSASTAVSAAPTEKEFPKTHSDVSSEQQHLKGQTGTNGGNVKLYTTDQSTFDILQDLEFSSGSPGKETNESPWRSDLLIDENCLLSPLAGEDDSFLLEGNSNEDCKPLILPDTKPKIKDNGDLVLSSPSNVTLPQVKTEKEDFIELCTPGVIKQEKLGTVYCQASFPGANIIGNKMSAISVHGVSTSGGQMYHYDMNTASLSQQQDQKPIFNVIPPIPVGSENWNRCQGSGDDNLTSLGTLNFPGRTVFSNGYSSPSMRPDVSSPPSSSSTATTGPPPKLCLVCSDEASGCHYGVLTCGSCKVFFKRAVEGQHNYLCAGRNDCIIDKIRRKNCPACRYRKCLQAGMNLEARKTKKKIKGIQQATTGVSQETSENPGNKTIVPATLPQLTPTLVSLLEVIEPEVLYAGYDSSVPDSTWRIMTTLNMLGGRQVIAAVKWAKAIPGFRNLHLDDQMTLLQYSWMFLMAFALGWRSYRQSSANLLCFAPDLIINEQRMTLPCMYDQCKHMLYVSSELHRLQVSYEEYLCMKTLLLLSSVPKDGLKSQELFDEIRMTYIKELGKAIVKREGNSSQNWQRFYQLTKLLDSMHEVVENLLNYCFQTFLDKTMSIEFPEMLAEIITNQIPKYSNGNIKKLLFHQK

[5] = biological target: T5, Progesterone PR-B receptors from human breast carcinoma T47D cells (Homo sapiens, UniProt P06401); test: PR binding assay ([3H] Progesterone displacement)
T5 sequence (P06401 1-933): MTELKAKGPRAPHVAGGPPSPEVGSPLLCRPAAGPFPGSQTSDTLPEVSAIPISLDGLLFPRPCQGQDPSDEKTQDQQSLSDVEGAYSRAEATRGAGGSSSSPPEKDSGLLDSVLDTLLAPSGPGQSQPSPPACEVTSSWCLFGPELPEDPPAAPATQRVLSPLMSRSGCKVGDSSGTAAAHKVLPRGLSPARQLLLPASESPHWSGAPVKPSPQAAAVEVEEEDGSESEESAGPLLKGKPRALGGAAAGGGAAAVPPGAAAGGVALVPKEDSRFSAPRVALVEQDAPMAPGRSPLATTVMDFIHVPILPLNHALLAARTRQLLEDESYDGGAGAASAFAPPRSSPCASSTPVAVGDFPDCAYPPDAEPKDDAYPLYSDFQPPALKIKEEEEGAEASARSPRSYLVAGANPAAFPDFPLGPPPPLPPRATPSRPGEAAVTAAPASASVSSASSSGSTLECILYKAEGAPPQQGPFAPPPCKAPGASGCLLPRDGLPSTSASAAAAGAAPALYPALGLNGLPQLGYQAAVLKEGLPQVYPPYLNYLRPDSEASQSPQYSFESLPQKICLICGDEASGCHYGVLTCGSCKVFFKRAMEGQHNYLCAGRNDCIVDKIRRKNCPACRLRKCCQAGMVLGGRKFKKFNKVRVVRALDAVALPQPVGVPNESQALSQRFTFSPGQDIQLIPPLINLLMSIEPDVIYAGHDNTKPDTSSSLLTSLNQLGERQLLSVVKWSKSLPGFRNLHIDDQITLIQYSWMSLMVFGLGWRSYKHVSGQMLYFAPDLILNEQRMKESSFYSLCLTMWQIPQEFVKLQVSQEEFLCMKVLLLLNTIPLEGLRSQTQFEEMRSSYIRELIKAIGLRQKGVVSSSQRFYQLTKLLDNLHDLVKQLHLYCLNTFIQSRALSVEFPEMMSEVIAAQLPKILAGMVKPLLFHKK

Row | Structure (SMILES) | IC50 (LNCap cells) [nM] | IC50 (T47D cells) [nM] | PR antagonism [1] | IC50 (IEC6 cells) [nM] | IC50 [2] [nM] | IC50 [3] [nM] | IC50 [4] [nM] | IC50 [5] [nM]
1 | CC[C@@]1(O)C(=O)OCc2c1cc1n(c2=O)Cc2cc3c(CN(C)C)c(OC(=O)N4CCN(CCCCCCCCN(C)c5ccc([C@H]6C[C@@]7(C)[C@@H](CC[C@]7(OC(C)=O)C(C)=O)[C@@H]7CCC8=CC(=O)CCC8=C76)cc5)CC4)ccc3nc2-1 [Compound 7, (S)-10-((Dimethylamino)methyl)-4-ethyl-4-hydroxy-3,14-dioxo-3,4,12,14-tetrahydro-1H-pyrano[3′,4′:6,7]indolizino[1,2-b]quinolin-9-yl 4-(8-((4-((8S,11R,13S,14S,17R)-17-acetoxy-17-acetyl-13-methyl-3-oxo-2,3,6,7,8,11,12,13,14,15,16,17-dodecahydro-1H-cyclopenta[a]phenanthren-11-yl)phenyl)(methyl)amino)octyl)piperazine-1-carboxylate] | 101 to 1000 | 101 to 1000 | a (IC50 =< 10 nM) | > 1000 | 10 to 100 | 10 to 100 | < 10 | < 10
2 | CC[C@@]1(O)C(=O)OCc2c1cc1n(c2=O)Cc2cc3c(CN(C)C)c(OC(=O)N4CCN(CCCCCCCN(C)c5ccc([C@H]6C[C@@]7(C)[C@@H](CC[C@]7(OC(C)=O)C(C)=O)[C@@H]7CCC8=CC(=O)CCC8=C76)cc5)CC4)ccc3nc2-1 [Compound 6, (S)-10-((Dimethylamino)methyl)-4-ethyl-4-hydroxy-3,14-dioxo-3,4,12,14-tetrahydro-1H-pyrano[3′,4′:6,7]indolizino[1,2-b]quinolin-9-yl 4-(7-((4-((8S,11R,13S,14S,17R)-17-acetoxy-17-acetyl-13-methyl-3-oxo-2,3,6,7,8,11,12,13,14,15,16,17-dodecahydro-1H-cyclopenta[a]phenanthren-11-yl)phenyl)(methyl)amino)heptyl)piperazine-1-carboxylate] | 101 to 1000 | 10 to 100 | a (IC50 =< 10 nM) | > 1000 | 10 to 100 | 10 to 100 | < 10 | < 10
3 | CC[C@@]1(O)C(=O)OCc2c1cc1n(c2=O)Cc2cc3c(CN(C)C)c(OC(=O)N4CCN(CCCCCN(C)c5ccc([C@H]6C[C@@]7(C)[C@@H](CC[C@]7(OC(C)=O)C(C)=O)[C@@H]7CCC8=CC(=O)CCC8=C76)cc5)CC4)ccc3nc2-1 [Compound 8, (S)-10-((Dimethylamino)methyl)-4-ethyl-4-hydroxy-3,14-dioxo-3,4,12,14-tetrahydro-1H-pyrano[3′,4′:6,7]indolizino[1,2-b]quinolin-9-yl 4-(5-((4-((8S,11R,13S,14S,17R)-17-acetoxy-17-acetyl-13-methyl-3-oxo-2,3,6,7,8,11,12,13,14,15,16,17-dodecahydro-1H-cyclopenta[a]phenanthren-11-yl)phenyl)(methyl)amino)pentyl)piperazine-1-carboxylate] | 101 to 1000 | 10 to 100 | a (IC50 =< 10 nM) | 101 to 1000 | < 10 | 10 to 100 | 10 to 100 | < 10
4 | CC[C@@]1(OC(=O)CN(C)C)C(=O)OCc2c1cc1n(c2=O)Cc2cc3c(CN(C)C)c(OC(=O)N4CCN(CCCCCCN(C)c5ccc([C@H]6C[C@@]7(C)[C@@H](CC[C@]7(OC(C)=O)C(C)=O)[C@@H]7CCC8=CC(=O)CCC8=C76)cc5)CC4)ccc3nc2-1 [Compound No. 14, (S)-10-((Dimethylamino)methyl)-4-((dimethylglycyl)oxy)-4-ethyl-3,14-dioxo-3,4,12,14-tetrahydro-1H-pyrano[3′,4′:6,7]indolizino[1,2-b]quinolin-9-yl 4-(6-((4-((8S,11R,13S,14S,17R)-17-acetoxy-17-acetyl-13-methyl-3-oxo-2,3,6,7,8,11,12,13,14,15,16,17-dodecahydro-1H-cyclopenta[a]phenanthren-11-yl)phenyl)(methyl)amino)hexyl)piperazine-1-carboxylate] | 101 to 1000 | 10 to 100 | a (IC50 =< 10 nM) | 10 to 100 | 10 to 100 | 10 to 100 | < 10 | < 10
